According to publication PMC7417813, “Synthesis and Biological Evaluation of Thio-Derivatives of 2-Hydroxy-1,4-Naphthoquinone (Lawsone) as Novel Antiplatelet Agents” (Frontiers in Chemistry, 2020):
“Also recorded” adds a separate entry of the source. Where two headings read alike, the source gives them in different places. Each block holds one molecule with its values, some of them ahead of it.

What was measured:
[1] = tested on: TRAP-6-stimulated platelets; assay: Platelet aggregation induced by TRAP-6 (light transmission, lumi-aggregometer); type: cell-based, human; conditions: platelet aggregation induced by TRAP-6 (5 μM), washed platelets pre-incubated 5 min at 37°C, read-out: IC50 (μM) ± SD TRAP-6 (5 μM)
Experimental: (§1) Platelet aggregation was evaluated using a lumi-aggregometer (Chrono-Log, Haverton, PA, USA) and monitored by light transmission according to Fuentes et al. (Fuentes et al., [2014a]; Mendez et al., [2020]). Briefly, washed platelets (200 × 10^9 platelets/L) were pre-incubated for 5 min at 37°C and pH 7.4 with vehicle or different doses of compounds; then platelet aggregation was induced by TRAP-6 (5 μM) or collagen (1 μg/mL) and measured for 5 min at 37°C while stirring.
(§2) The data obtained were presented as a mean ± standard deviation (SD) of three independent experiments and analyzed using Prism 8.3 software (GraphPad Inc., San Diego CA, USA). The half-maximal inhibitory concentration (IC50) was calculated from dose-response curves. Differences between samples were analyzed using Tukey or paired t-test (Vaiyapuri et al., [2013]). P-values < 0.05 were considered as significant (Fuentes et al., [2014b]; Munoz-Gutierrez et al., [2017]).

[2] = tested on: collagen-stimulated platelets; assay: Platelet aggregation induced by collagen (light transmission, lumi-aggregometer); type: cell-based, human; conditions: platelet aggregation induced by collagen (1 μg/mL), washed platelets pre-incubated 5 min at 37°C, read-out: IC50 (μM) ± SD Collagen (1 μg/mL)
Experimental: as §1, §2

washed platelets = assay: Lactate dehydrogenase (LDH)-based cytotoxicity assay on washed platelets; conditions: for cytotoxicity on platelets by LDH leakage (in words): 100 μM, 10 min at 37°C; for Cytotoxic activity Mean (%) ± SD: LDH release as percentage of total enzyme activity (0.3% Triton X-100 lysis), 100 μM compound, 10 min, 37°C, washed platelets
Experimental: Platelets were obtained from citrated whole blood of healthy volunteers (two weeks drugs-free) with written informed consent, as previously described (Fuentes et al., [2014a]).
Washed platelets (200 × 10^9 platelets/L) were incubated for 10 min at 37°C with DMSO (vehicle) 0.2% or 100 μM of compounds. Then, platelets are centrifuged (800 × g for 8 min), and 50 μL aliquots of the resulting supernatant analyzed by the LDH assay (Cayman Chemical, USA).

platelets = assay: Externalization of phosphatidylserine by annexin-V binding (flow cytometry); type: cell-based, human; conditions: Figure 3A
Experimental: (§3) Externalization of phosphatidylserine, glycoprotein (GP) IIb/IIIa activation, P-selectin expression, CD63 release, and ROS levels on platelets were determined by flow cytometry (Ritchie et al., [2000]; Fuentes et al., [2014b]; Walsh et al., [2014]). All results were analyzed in the Accuri C6 flow cytometer (BD, Biosciences, USA).
(§4) Figure 3 Antiplatelet activity of compound 4. (A) Externalization of phosphatidylserine was evaluated by annexin-V binding. (B) Levels of CD63 on the surface of platelets after activation by TRAP-6 (5 μM) or collagen (1 μg/mL). (C) P-selectin expression was measured by flow cytometry in platelets stimulated with TRAP-6 (5 μM) or collagen (1 μg/mL). (D) GPIIb/IIIa activation stimulated by TRAP-6 (5 μM) or collagen (1 μg/mL) was determined by flow cytometry using the PAC-1 antibody. The graph depicts the mean ± SD of n = 3 experiments. The black graph is the control of resting platelets. ^*p < 0.05, ^**p < 0.01, and ^***p < 0.001 vs. 0 (vehicle DMSO 0.2%).

CD63 = CD63 levels on the surface of platelets (flow cytometry); type: cell-based, human; conditions: Figure 3B
Experimental: as §3, §4

P-selectin = P-selectin expression on platelets (flow cytometry); type: cell-based, human; conditions: compound at 10 and 40 μM, Figure 3C
Experimental: as §3, §4

GPIIb/IIIa = GPIIb/IIIa activation by PAC-1 antibody binding (flow cytometry); type: cell-based, human; conditions: Figure 3D
Experimental: as §3, §4
Small structural changes led to the synthesis of non-toxic lawsone thio-derivatives with potent antiplatelet activity (Tables 1, 3). […] Thus, we decided to deeply analyze the effects of compound 4 in platelets. […] We analyzed the activated form of GPIIb/IIIa by studying the binding of FITC-labeled PAC-1 antibody by flow cytometry (Fuentes et al., [2014a]).

Molecule: 2-((2-bromophenyl)thio)-3-hydroxynaphthalene-1,4-dione [Compound 2]
IC50 [1]: 112 ± 17.5 µM
IC50 [2]: 11.2 ± 3.9 µM
cytotoxicity on platelets by LDH leakage (in words) (washed platelets): did not exert cytotoxicity
Cytotoxic activity Mean (%) ± SD (washed platelets): 14.72 ± 10.92%

Molecule: 2-((4-Bromophenyl)thio)-3-hydroxynaphthalene-1,4-dione [Compound 4]
IC50 [1]: 15 ± 1.52 µM
IC50 [2]: 5.58 ± 1.01 µM
phosphatidylserine exposure (platelets): unable to affect
expression of CD63 on platelets' membrane (CD63; after activation with TRAP-6 (5 μM)): decreased
expression of CD63 on platelets' membrane (CD63; after activation with collagen (1 μg/mL)): decreased
P-selectin expression on activated platelets (P-selectin; TRAP-6 (5 μM)): inhibited
P-selectin expression on activated platelets (P-selectin; collagen (1 μg/mL)): inhibited
PAC-1 binding to platelets (GPIIb/IIIa activation) (GPIIb/IIIa; TRAP-6-induced): inhibited
PAC-1 binding to platelets (GPIIb/IIIa activation) (GPIIb/IIIa; collagen-induced): inhibited
cytotoxicity on platelets by LDH leakage (in words) (washed platelets): no cytotoxicity was observed; also recorded: did not exert cytotoxicity; also recorded: non-toxic
Cytotoxic activity Mean (%) ± SD (washed platelets): 22.38 ± 5.78%

Molecule: O=C1C(O)=C(Sc2ccccc2)C(=O)c2ccccc21 [Compound 1, 2-Hydroxy-3-(phenylthio)naphthalene-1,4-dione]
IC50 ([1]; Homo sapiens): 155 ± 55.2 µM
IC50 ([2]; Homo sapiens): 14.6 ± 5.43 µM
cytotoxicity on platelets by LDH leakage (in words) (washed platelets): did not exert cytotoxicity
Cytotoxic activity Mean (%) ± SD (washed platelets): 22.35 ± 2.94%

Molecule: O=C1C=C(O)C(=O)c2ccccc21 [Lawsone, 2-hydroxy-1,4-naphthoquinone]
cytotoxicity on platelets by LDH leakage (in words) (washed platelets): had a cytotoxic activity
Cytotoxic activity Mean (%) ± SD (washed platelets): 32.80 ± 3.13 %

The next lines start with results.

melting point: 235 °C (dec.)
Molecule: COC(=O)c1ccccc1SC1=C(O)C(=O)c2ccccc2C1=O [Compound 5, Methyl 2-((3-hydroxy-1,4-dioxo-1,4-dihydronaphthalen-2-yl)thio)benzoate]
cytotoxicity on platelets by LDH leakage (in words) (washed platelets): had a cytotoxic activity
Cytotoxic activity Mean (%) ± SD (washed platelets): 31.12 ± 3.06 %

IC50 ([1]; Homo sapiens): > 500 µM
IC50 ([2]; Homo sapiens): 10.6 ± 2.25 µM
Molecule: O=C1C(O)=C(Sc2ccccc2F)C(=O)c2ccccc21 [Compound 6, 2-((2-Fluorophenyl)thio)-3-hydroxynaphthalene-1,4-dione]
cytotoxicity on platelets by LDH leakage (in words) (washed platelets): did not exert cytotoxicity
Cytotoxic activity Mean (%) ± SD (washed platelets): 21.77 ± 2.37%

IC50 ([1]; Homo sapiens): 134 ± 17.3 µM
IC50 ([2]; Homo sapiens): 11.1 ± 1.69 µM
melting point: 268.7 °C (dec.)
Molecule: O=C1C(O)=C(Sc2cccc(F)c2)C(=O)c2ccccc21 [Compound 7, 2-((3-Fluorophenyl)thio)-3-hydroxynaphthalene-1,4-dione]
cytotoxicity on platelets by LDH leakage (in words) (washed platelets): did not exert cytotoxicity
Cytotoxic activity Mean (%) ± SD (washed platelets): 21.50 ± 2.37%

IC50 ([1]; Homo sapiens): 108 ± 53 µM
IC50 ([2]; Homo sapiens): 12.1 ± 1.21 µM
melting point: 268 °C (dec.)
Molecule: O=C1C(O)=C(Sc2ccc(F)cc2)C(=O)c2ccccc21 [Compound 8, 2-((4-Fluorophenyl)thio)-3-hydroxynaphthalene-1,4-dione]
cytotoxicity on platelets by LDH leakage (in words) (washed platelets): did not exert cytotoxicity
Cytotoxic activity Mean (%) ± SD (washed platelets): 21.62 ± 4.17%
